Laboratory results taken from patent US11873290B2, “Pyridazinone compounds and uses thereof” (Edgewise Therapeutics, Inc., priority 2018, dated 2024).

Biological target: skeletal myofibrils (myosin ATPase activity)
Assay: Skeletal Myofibril ATPase Assay
Assay type: biochemical
Conditions: PK-LDH coupled, absorbance at 340 nm
Procedure: Overview: Myosin ATPase activity is assessed by using a coupled reaction system, in which ADP generated by the myosin ATPase function is coupled to the disappearance of NADH through the pyruvate kinase/lactate dehydrogenase (PK-LDH) system. Myosin ATPase activity produces ADP, which is used as a substrate for PK to produce pyruvate and regenerate ATP. The pyruvate is then used as a substrate by LDH to oxidize NADH to NAD+. The rate of the reaction is monitored through the time-dependent disappearance of NADH using absorbance at 340 nm. Inhibition of ATPase activity by the assayed compounds is indicated by a reduced rate of NADH loss, relative to vehicle-treated controls, over the experimental time window. To assess the selectivity of the assayed compounds for skeletal myofibrils, the compounds are counter-screened in cardiac myofibrils.
Materials: The following stock solutions and reagents were used in the Skeletal Myofibril ATPase Assay:
Stock Solutions of pCa buffer. Combine PIPES, CaCl2, and EGTA solutions with 70 mL of water. Adjust pH to 7.0 and bring final volume to 100 mL.
Skeletal Myofibril ATPase Assay Procedure: BSA, ATP, NADH, PEP, and DTT solutions were thawed at room temperature, then transferred to ice. Pellet-frozen myofibrils (approximately twice the required volume) were transferred into a sufficiently large tube and capped. Myofibrils were thawed by rolling in a water bath for approximately 15 min at room temperature and cooled on ice. Buffers A and B were prepared by adjusting volumes as necessary for required number of wells and stored on ice. 0.5 μL of the compounds to be assayed were added into wells of a 384-well plate. Buffers A and B were mixed by inversion immediately prior to use, then 25 μL of each was dispensed using a Multidrop dispenser (Buffer A first, then Buffer B). The absorbance within the wells was measured at 340 nm, using a kinetic protocol in which the wells are read every 1.5-2 min for 1 h. The reaction rate was qualitatively assessed by subtracting the minimum absorbance value from the maximum value for each well, using either the SoftMax Pro plate reader software or a spreadsheet program such as Excel. Using GraphPad Prism 8.0, the data was normalized, with 100% activity defined as the absorbance change in the 1% DMSO vehicle wells and 0% assigned to no change in absorbance over the course of the experiment. The normalized data were fit to a variable-slope four-parameter logistic model, constraining the bottom to be 0 or greater. Compounds of Table 1 to 4 were tested and results of the assay appear in Table 5 herein. A=IC50 is less than or equal to 10 μM; B=IC50 is greater than 10 μM and less than 100 μM; C=IC50 is greater than 100 μM; […].

SMILES | IC50 [µM]
O=c1ccc(-c2cnc(OCC3(F)COC3)nc2)nn1Cc1nnc(-c2ccccc2)s1 [Compound 92, 6-(2-((3-fluorooxetan-3-yl)methoxy)pyrimidin-5-yl)-2-((5-phenyl-1,3,4-thiadiazol-2-yl)methyl)pyridazin-3(2H)-one] | < 10
O=c1ccc(-c2cnc(OCC(F)(F)F)nc2)nn1Cc1nnc(-c2ccccc2)s1 [Compound 94, 2-((5-phenyl-1,3,4-thiadiazol-2-yl)methyl)-6-(2-(2,2,2-trifluoroethoxy)pyrimidin-5-yl)pyridazin-3(2H)-one] | < 10
O=c1ccc(-c2cnc(OCC(F)(F)F)nc2)nn1Cc1nnc(N2CCCCC2)s1 [Compound 95, 2-((5-(piperidin-1-yl)-1,3,4-thiadiazol-2-yl)methyl)-6-(2-(2,2,2-trifluoroethoxy)pyrimidin-5-yl)pyridazin-3(2H)-one] | < 10
O=c1ccc(-c2cnc(OCC(F)(F)F)nc2)nn1Cc1ccc2[nH]ncc2c1 [Compound 96, 2-((1H-indazol-5-yl)methyl)-6-(2-(2,2,2-trifluoroethoxy)pyrimidin-5-yl)pyridazin-3(2H)-one] | < 10
O=c1ccc(-c2cnc(OCCOC(F)(F)F)nc2)nn1Cc1cncc(F)c1 [Compound 97, 2-((5-fluoropyridin-3-yl)methyl)-6-(2-(2-(trifluoromethoxy)ethoxy)pyrimidin-5-yl)pyridazine-3(2H)-one] | < 10
CCc1ncc(Cn2nc(-c3cnc(OCC(F)(F)F)nc3)ccc2=O)s1 [Compound 99, 2-((2-ethylthiazol-5-yl)methyl)-6-(2-(2,2,2-trifluoroethoxy)pyrimidin-5-yl)pyridazine-3(2H)-one] | < 10
O=c1ccc(-c2cnc(OCC(F)(F)F)nc2)nn1Cc1cnc(C2CC2)s1 [Compound 100, 2-((2-cyclopropylthiazol-5-yl)methyl)-6-(2-(2,2,2-trifluoroethoxy)pyrimidin-5-yl)pyridazine-3(2H)-one] | < 10
Cc1cncc(Cn2nc(-c3cnc(OCC(F)(F)F)nc3)ccc2=O)c1 [Compound 101, 2-((5-methylpyridin-3-yl)methyl)-6-(2-(2,2,2-trifluoroethoxy)pyrimidin-5-yl)pyridazine-3(2H)-one] | < 10
CSCCOc1ncc(-c2ccc(=O)n(Cc3cncc(F)c3)n2)cn1 [Compound 102] | < 10
O=c1ccc(-c2cnc(OCC3COC3)nc2)nn1Cc1cncc(F)c1 [Compound 103, 2((5-fluoropyridin-3-yl)methyl)-6-(2-(oxetan-3-ylmethoxy)pyrimidin-5-yl)pyridazine-3(2H)-one] | < 10
CC(C)(C)COc1ncc(-c2ccc(=O)n(Cc3cncc(F)c3)n2)cn1 [Compound 104, 2((5-fluoropyridin-3-yl)methyl)-6-(2-(neopentyloxy)pyrimidin-5-yl)pyridazine-3(2H)-one] | < 10
O=c1ccc(-c2cnc(OCC(F)(F)F)nc2)nn1Cc1cnc(C(F)F)s1 [Compound 105] | < 10
O=c1ccc(-c2cnc(OCC(F)F)nc2)nn1Cc1cncc(F)c1 [Compound 106, 6-(2-(2,2-difluoroethoxy)pyrimidin-5-yl)-2-((5-fluoropyridin-3-yl)methyl)pyridazine-3(2H)-one] | < 10
O=c1ccc(-c2cnc(OCc3cncc(F)c3)nc2)nn1Cc1cncc(F)c1 [Compound 107, 6-(2-((5-fluoropyridin-3-yl)methoxy)pyrimidin-5-yl)-2-((5-fluoropyridin-3-yl)methyl)pyridazin-3(2H)-one] | > 100
CSCOc1ncc(-c2ccc(=O)n(Cc3cncc(F)c3)n2)cn1 [Compound 108, 2-((5-fluoropyridin-3-yl)methyl)-6-(2-((methylthio)methoxy)pyrimidin-5-yl)pyridazine-3(2H)-one] | < 10
CSCc1ncc(Cn2nc(-c3cnc(OCC(F)(F)F)nc3)ccc2=O)s1 [Compound 109, 2-((2-((methylthio)methyl)thiazol-5-yl)methyl)-6-(2-(2,2,2-trifluoroethoxy)pyrimidin-5-yl)pyridazine-3(2H)-one] | < 10
CC(C)COc1ncc(-c2ccc(=O)n(Cc3cncc(F)c3)n2)cn1 [Compound 110, 2-((5-fluoropyridin-3-yl)methyl)-6-(2-isobutoxypyrimidin-5-yl)pyridazine-3(2H)-one] | < 10

SMILES | IC50 [µM]
CSc1cncc(Cn2nc(-c3cnc(OCC(F)(F)F)nc3)ccc2=O)c1 [Compound 111] | < 10
CCCOc1ncc(-c2ccc(=O)n(Cc3cnc(CC)s3)n2)cn1 [Compound 112, 2-((2-ethylthiazol-5-yl)methyl)-6-(2-propoxypyrimidin-5-yl)pyridazine-3(2H)-one] | < 10
CC(F)(F)COc1ncc(-c2ccc(=O)n(Cc3cncc(F)c3)n2)cn1 [Compound 113, 6-(2-(2,2-difluoropropoxy)pyrimidin-5-yl)-2-((5-fluoropyridin-3-yl)methyl)pyridazine-3(2H)-one] | < 10
CC(C)c1ncc(Cn2nc(-c3cnc(OCC(F)(F)F)nc3)ccc2=O)s1 [Compound 114, 2-((2-isopropylthiazol-5-yl)methyl)-6-(2-(2,2,2-trifluoroethoxy)pyrimidin-5-yl)pyridazine-3(2H)-one] | < 10
CC(C)Oc1ncc(-c2ccc(=O)n(Cc3cncc(F)c3)n2)cn1 [Compound 115, 2-((5-f1uoropyridin-3-yl)methyl)-6-(2-isopropoxypyrimidin-5-yl)pyridazine-3(2H)-one] | < 10
CCCc1ncc(Cn2nc(-c3cnc(OCC(F)(F)F)nc3)ccc2=O)s1 [Compound 116, 2-((2-propylthiazol-5-yl)methyl)-6-(2-(2,2,2-trifluoroethoxy)pyrimidin-5-yl)pyridazine-3(2H)-one] | < 10
O=c1ccc(-c2cnc(OCCC(F)(F)F)nc2)nn1Cc1cncc(F)c1 [Compound 117, 2-((5-f1uoropyridin-3-yl)methyl)-6-(2-(3,3,3-trifluoropropoxy)pyrimidin-5-yl)pyridazine-3(2H)-one] | < 10
O=c1ccc(-c2cnc(OCC(F)(F)F)nc2)nn1Cc1cncc(F)n1 [Compound 118, 2-((6-fluoropyrazin-yl)methyl)-6-(2-(2,2,2-trifluoroethoxy)pyrimidin-5-yl)pyridazin-3(2H)-one] | < 10
O=c1ccc(-c2cnc(OCC3CC3)nc2)nn1Cc1cncc(F)c1 [Compound 119, 6-(2-(cyclopropylmethoxy)pyrimidin-5-yl)-2-((5-fluoropyridin-3-yl)methyl)pyridazine-3(2H)-one] | < 10
CC[C@H](C)Oc1ncc(-c2ccc(=O)n(Cc3cncc(F)c3)n2)cn1 [Compound 120, (S)-6-(2-(sec-butoxy)pyrimidin-5-yl)-2((5-fluropyridin-3-yl)methyl)pyridazine-3(2H)-one] | < 10
CC(C)(F)COc1ncc(-c2ccc(=O)n(Cc3cncc(F)c3)n2)cn1 [Compound 121, 6-(2-(2-fluoro-2-methylpropoxy)pyrimidin-5-yl)-2-((5-f1uoropyridin-3-yl)methyl)pyridazine-3(2H)-one] | < 10
O=c1ccc(-c2cnc(OCC(F)(F)F)nc2)nn1Cc1cnc(C2CCC2)s1 [Compound 122, 2-((2-cyclobutylthiazol-5-yl)methyl)-6-(2-(2,2,2-trifluoroethoxy)pyrimidin-5-yl)pyridazine-3(2H)-one] | < 10
CSC(C)COc1ncc(-c2ccc(=O)n(Cc3cncc(F)c3)n2)cn1 (stereo not shown) [Compound 123, 2((5-fluoropyridin-3-yl)methyl)-6-(2-(2-(methylthio)propoxy)pyrimidin-5-yl)pyridazine-3(2H)-one] | < 10
CCc1ncc(Cn2nc(-c3cnc(OCC(C)C)nc3)ccc2=O)s1 [Compound 124, 2-((2-ethylthiazol-5-yl)methyl)-6-(2-isobutoxypyrimidin-5-yl)pyridazine-3(2H)-one] | < 10
COC(C)(C)COc1ncc(-c2ccc(=O)n(Cc3cncc(F)c3)n2)cn1 [Compound 125, 2-((5-fluoropyridin-3-yl)methyl)-6-(2-(2-methoxy-2-methylpropoxy)pyrimidin-5-yl)pyridazine-3(2H)-one] | < 10
O=c1ccc(-c2cnc(OCC3CCC3)nc2)nn1Cc1cncc(F)c1 [Compound 126, 6-(2-(cyclobutylmethoxy)pyrimidin-5-yl)-2-((5-fluoropyridin-3-yl)methyl)pyridazine-3(2H)-one] | < 10
CC[C@@H](C)Oc1ncc(-c2ccc(=O)n(Cc3cncc(F)c3)n2)cn1 [Compound 127] | < 10
